Measured values published in patent publication US8101626B2, “GPR119 receptor agonists in methods of increasing bone mass and of treating osteoporosis and other conditions characterized by low bone mass, and combination therapy relating thereto” (Arena Pharmaceuticals, Inc., priority 2006, dated 2012).

Assays:
[1] = test system: blood GIP level; experiment: Effect of oral GPR119 agonist on plasma GIP level (rodent total GIP ELISA) in wild-type mice, with oral glucose bolus; format: in vivo, C57blk/6 male mice; settings: 20 mg/kg per orally vs vehicle PET, FIG. 1A
Protocol: A. C57blk/6 male mice were fasted for 18 hours, and randomly assigned into fourteen groups with n=6 for each group. Mice were administered per orally with vehicle (PET; 80% PEG400, 10% ethanol, 10% Tween80) or with a GPR119 agonist in accordance with the present invention (Compound 1Z; (2-Fluoro-4-methanesulfonyl-phenyl)-{6-[4-(3-isopropyl-[1,2,4]oxadiazol-5-yl)-piperidin-1-yl]-5-nitro-pyrimidin-4-yl}-amine) at 20 mg/kg, as indicated in FIG. 1A. Thirty minutes after treatment, a glucose bolus at 3 g/kg were delivered per orally, and plasma were collected at 0 (no glucose bolus), 2, 5, 10, 20, 40 and 60 minutes after glucose bolus. Plasma GIP levels were determined by using a rodent GIP ELISA kit purchased from Linco Research Laboratory [Rat/Mouse Gastric Inhibitory Polypeptide (Total) ELISA Catalog #EZRMGIP-55K], following instructions provided by the supplier. […]
B. C57blk/6 male mice were fasted for 18 hours, and randomly assigned into fourteen groups with n=6 for each group. […] Plasma GIP levels were determined by using a rodent GIP ELISA kit purchased from Linco Research Laboratory [Rat/Mouse Gastric Inhibitory Polypeptide (Total) ELISA Catalog #EZRMGIP-55K], following instructions provided by the supplier. […] Mean values of GIP concentration were calculated based on results with six mice in each group and shown as mean±SEM. […]

[2] = biological target: T1, GPR119 receptor (Mus musculus, UniProt Q7TQP3); experiment: Effect of oral GPR119 agonist on plasma GIP level in GPR119-deficient (knockout) mice compared to wild-type littermates; format: in vivo; settings: 20 mg/kg per orally; wild-type littermates; time 0 and 5 min after glucose bolus 3 g/kg; FIG. 2A
T1 construct: from tissue; host or cells: whole animal: wild-type male mice dosed orally, compared with GPR119-deficient littermates
T1 sequence (Q7TQP3 1-335): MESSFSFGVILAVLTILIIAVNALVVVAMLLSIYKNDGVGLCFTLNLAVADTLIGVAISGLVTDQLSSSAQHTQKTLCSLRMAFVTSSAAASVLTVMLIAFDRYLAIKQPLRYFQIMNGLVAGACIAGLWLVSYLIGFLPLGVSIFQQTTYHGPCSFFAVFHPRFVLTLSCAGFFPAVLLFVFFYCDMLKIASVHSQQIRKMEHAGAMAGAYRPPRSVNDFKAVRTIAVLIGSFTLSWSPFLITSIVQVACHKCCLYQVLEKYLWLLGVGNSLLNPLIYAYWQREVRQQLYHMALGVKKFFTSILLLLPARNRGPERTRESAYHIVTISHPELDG
Protocol: (§1) A. GPR119-deficient male mice and wild-type littermates were fasted for 18 hours. Mice were administered per orally with vehicle (PET; 80% PEG400, 10% ethanol, 10% Tween80) or with a GPR119 agonist in accordance with the present invention (Compound 1Z; (2-Fluoro-4-methanesulfonyl-phenyl)-{6-[4-(3-isopropyl-[1,2,4]oxadiazol-5-yl)-piperidin-1-yl]-5-nitro-pyrimidin-4-yl}-amine) at 20 mg/kg, as indicated (n=5). Thirty minutes after treatment, blood (100 microliter) was collected via retro orbital vein of the eye (time 0) followed by a glucose bolus at 3 g/kg (per orally). Five minutes after delivering glucose, another blood sample (100 microliter) was collected (time 5 minutes). Plasma were collected after centrifugation and GIP levels were determined by using a rodent GIP ELISA kit purchased from Linco Research Laboratory [Rat/Mouse Gastric Inhibitory Polypeptide (Total) ELISA Catalog #EZRMGIP-55K], following instructions provided by the supplier. […]
(§2) B. GPR119-deficient male mice and wild-type littermates were fasted for 18 hours. […] Plasma were collected after centrifugation and GIP levels were determined by using a rodent GIP ELISA kit purchased from Linco Research Laboratory [Rat/Mouse Gastric Inhibitory Polypeptide (Total) ELISA Catalog #EZRMGIP-55K], following instructions provided by the supplier. […]

[3] = test system: GPR119 receptor; experiment: as above; format: in vivo; settings: 20 mg/kg per orally vs vehicle PET; blood at time 0 and 5 min after glucose bolus 3 g/kg; FIG. 2A
Protocol: as §1, §2

SMILES: CC(C)c1noc(C2CCN(c3ncnc(Nc4ccc(S(C)(=O)=O)cc4F)c3[N+](=O)[O-])CC2)n1 [Compound 1Z, (2-Fluoro-4-methanesulfonyl-phenyl)-{6-[4-(3-isopropyl-[1,2,4]oxadiazol-5-yl)-piperidin-1-yl]-5-nitro-pyrimidin-4-yl}-amine]
- level of GIP in the blood of the mice (glucose-dependent and glucose-independent) ([1]; glucose bolus 3 g/kg 30 min after treatment, plasma at 0 (no glucose bolus), 2, 5, 10, 20, 40, 60 min): increased both a glucose-dependent and a glucose-independent level of GIP
- plasma total GIP ([1]; glucose bolus 3 g/kg, time course 0-60 min): stimulated plasma total GIP
- plasma total GIP in wild-type mice [2]: stimulated plasma total GIP in the wild-type mice
- glucose-independent and glucose-dependent level of GIP in the blood, GPR119-deficient vs wild-type mice [3]: functional GPR119 receptor was necessary for the administered GPR119 agonist to increase a glucose-independent level and a glucose-dependent level of GIP
